From PMC5687273 (Cell reports, 2017)

Target: Cdk7^as (Homo sapiens, UniProt P50613, D92E/F91G)
Assay: in vitro kinase assay on GST-CTD, autoradiography
Assay type: biochemical

Sequence of Cdk7^as (P50613 2-346 F91G/D92E): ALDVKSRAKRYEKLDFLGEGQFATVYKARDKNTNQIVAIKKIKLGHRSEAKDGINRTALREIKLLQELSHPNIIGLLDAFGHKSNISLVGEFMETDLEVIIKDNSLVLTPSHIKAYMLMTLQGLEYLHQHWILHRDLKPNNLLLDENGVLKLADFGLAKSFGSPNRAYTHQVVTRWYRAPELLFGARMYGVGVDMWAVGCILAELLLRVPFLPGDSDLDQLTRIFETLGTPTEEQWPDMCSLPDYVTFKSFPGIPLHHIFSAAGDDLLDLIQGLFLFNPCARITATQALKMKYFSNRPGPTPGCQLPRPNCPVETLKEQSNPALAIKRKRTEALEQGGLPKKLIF
Sequence of Cdk7^as (P51946 whole entry partner): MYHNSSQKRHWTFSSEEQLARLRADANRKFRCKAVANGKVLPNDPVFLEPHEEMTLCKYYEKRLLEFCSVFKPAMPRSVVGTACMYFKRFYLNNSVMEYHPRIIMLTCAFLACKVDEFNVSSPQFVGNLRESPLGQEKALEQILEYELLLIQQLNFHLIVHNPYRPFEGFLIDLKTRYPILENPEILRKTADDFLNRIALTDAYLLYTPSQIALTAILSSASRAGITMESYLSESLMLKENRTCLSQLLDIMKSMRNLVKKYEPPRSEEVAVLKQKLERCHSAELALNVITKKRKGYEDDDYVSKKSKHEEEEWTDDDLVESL
Sequence of Cdk7^as (P51948 whole entry partner): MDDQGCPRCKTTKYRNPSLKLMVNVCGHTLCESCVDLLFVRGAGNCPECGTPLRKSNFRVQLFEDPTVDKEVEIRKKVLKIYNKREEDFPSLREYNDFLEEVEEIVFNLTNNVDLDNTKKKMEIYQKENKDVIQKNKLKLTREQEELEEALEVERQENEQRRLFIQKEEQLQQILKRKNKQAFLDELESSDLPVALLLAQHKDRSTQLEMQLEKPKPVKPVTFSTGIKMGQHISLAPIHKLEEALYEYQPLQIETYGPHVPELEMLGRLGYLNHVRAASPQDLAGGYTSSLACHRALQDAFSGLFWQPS

**Q.** For `Cc1cccc(Cc2nn(C(C)(C)C)c3ncnc(N)c23)c1` [3-MB-PP1], which IC50 is on record?
**A.** ~10 nM
